pKd: −log10 of the molar value.
Target: T1, wild-type CggR (Bacillus subtilis, UniProt O32253)
T1 sequence (O32253 1-340): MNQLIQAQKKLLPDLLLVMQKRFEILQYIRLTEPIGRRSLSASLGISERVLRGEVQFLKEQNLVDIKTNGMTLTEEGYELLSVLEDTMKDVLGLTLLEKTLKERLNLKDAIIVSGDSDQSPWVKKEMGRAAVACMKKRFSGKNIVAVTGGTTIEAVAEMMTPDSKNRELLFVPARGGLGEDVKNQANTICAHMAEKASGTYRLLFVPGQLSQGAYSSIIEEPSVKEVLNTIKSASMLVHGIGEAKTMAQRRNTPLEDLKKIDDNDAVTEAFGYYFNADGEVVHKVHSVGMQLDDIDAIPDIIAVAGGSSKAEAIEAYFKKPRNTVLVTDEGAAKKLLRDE
Assay: Thermal shift assay of purified CggR with SYPRO Orange and 0-36 mM FBP (20 to 99 °C in 0.5 °C steps, NaCl counter-ion controls), no DNA; KD from fitting Tm data to a simple cooperative binding model in GraphPad.
Description: We generated these CggR mutants with site‐directed mutagenesis, expressed in E. coli, purified, and biochemically characterized them. To this end, we used thermal shift assays to assess protein stability and ligand binding.
Figure 5 Biochemical characterization of CggR and respective mutants • Thermal shift assays were used to determine the melting curves of wild‐type CggR and mutants. Error bars correspond to the standard deviation of at least five replicates. • CggR‐FBP affinity constants (KD's) of the wild type and mutant variants, determined by fitting a simple cooperative binding model to the melting curves data. Error bars indicate the 95% confidence intervals. • Quantification of CggR binding to DNA. The CggR bound to DNA fraction was calculated by dividing the intensity of the protein–DNA complex band by the total DNA. The background‐subtracted total intensities of the CggR–DNA complex and the free‐DNA bands were assessed with ImageJ. Error bars correspond to the standard deviation of three replicate experiments for the mutants and six for the wild type. • Summary of the biochemical characterization of the wild type and mutant CggR variants. […]
The K D of the wild type and mutant CggR variants was calculated by fitting the T m data into a simple cooperative model using the GraphPad software.

O=P(O)(O)OC[C@H]1OC(O)(COP(=O)(O)O)[C@@H](O)[C@@H]1O (stereo partly shown) [FBP, fructose-1,6-bisphosphate]
pKd: 3.00

Reference: paper PMC6920703, “Measuring glycolytic flux in single yeast cells with an orthogonal synthetic biosensor” (Molecular Systems Biology, 2019)
